Columns and labels:
[1] = system: rabbit serum obtained by immunizing a rabbit with the SARS-CoV strain Frankfurt 1; assay type: binding; design: Binding of a rabbit serum to linear peptides / Binding of a rabbit serum to looped peptides / Rabbit serum linear peptides / Rabbit serum looped peptides / Binding of a rabbit serum to linear peptides of protein N of SARS-CoV Urbani (Rabbit serum linear peptides) / Binding of a rabbit serum to looped/cyclic peptides of protein N of SARS-CoV Urbani (Rabbit serum looped peptides): unit not given here
[2] = system: antibodies in sera from SARS patients (sera 1a, 1b, 2, 6, 37, 62, London, SARS-yellow, SARS-green); assay type: binding, human; design: Binding of serum 6 to linear peptides of protein X1 of SARS-CoV Urbani / Binding of serum 37 to linear peptides of protein X1 of SARS-CoV Urbani / Binding of serum 6 to looped/cyclic peptide (PEPSCAN-ELISA) / Binding of serum 37 to looped/cyclic peptide (PEPSCAN-ELISA) / Binding of serum 37 to looped/cyclic peptides of protein X1 of SARS-CoV Urbani / Binding of serum 6 to linear peptides of protein X2 / Binding of serum 37 to linear peptides of protein X2 / Binding of serum 37 to looped/cyclic peptides of protein X2 of SARS-CoV Urbani / Binding of serum 6 to linear peptides of protein M of SARS-CoV Urbani / Binding of serum 37 to linear peptides of protein M of SARS-CoV Urbani / Binding of serum 6 to looped/cyclic peptides of protein M of SARS-CoV Urbani / Binding of serum 37 to looped/cyclic peptides of protein M of SARS-CoV Urbani / Binding of serum 6 to linear peptides of protein X3 of SARS-CoV Urbani / Binding of serum 37 to linear peptides of protein X3 of SARS-CoV Urbani / Binding of serum 37 to looped/cyclic peptides of protein X3 of SARS-CoV Urbani / Binding of serum 6 to linear peptides of protein X4 of SARS-CoV Urbani / Binding of serum 37 to linear peptides of protein X4 of SARS-CoV Urbani / Binding of serum 37 to looped/cyclic peptides of protein X4 of SARS-CoV Urbani / Binding of serum 6 to linear peptides of protein X5 of SARS-CoV Urbani / Binding of serum 37 to linear peptides of protein X5 of SARS-CoV Urbani / Binding of serum 37 to looped/cyclic peptides of protein X5 of SARS-CoV Urbani / Binding of serum 6 to linear peptides of protein N of SARS-CoV Urbani / Binding of serum 37 to linear peptides of protein N of SARS-CoV Urbani / Binding of serum 6 to linear peptide (PEPSCAN-ELISA) / Binding of serum 1a to looped/cyclic peptides of protein N of SARS-CoV Urbani / Binding of serum 1b to looped/cyclic peptides of protein N of SARS-CoV Urbani / Binding of serum 2 to looped/cyclic peptides of protein N of SARS-CoV Urbani / Binding of serum 6 to looped/cyclic peptides of protein N of SARS-CoV Urbani / Binding of serum 37 to looped/cyclic peptides of protein N of SARS-CoV Urbani / Binding of serum 62 to looped/cyclic peptides of protein N of SARS-CoV Urbani / Binding of serum London to looped/cyclic peptides of protein N of SARS-CoV Urbani / Binding of serum SARS-green to looped/cyclic peptides of protein N of SARS-CoV Urbani: unit not given here
[3] = system: control sera (pooled serum of ten healthy LUMC hospital workers; commercial negative donor pooled serum from the Dutch bloodbank); assay type: binding, human; design: Binding of Control serum LUMC to linear peptides / Binding of Control serum Blood-bank to linear peptides / Binding of Control serum LUMC to looped peptides / Binding of Control Serum Blood-Bank to Looped peptides / Binding of Control serum LUMC to linear peptides of the protein M of SARS-CoV Urbani / Binding of Control serum Blood-bank to linear peptides of the protein M of SARS-CoV Urbani / Binding of Control serum LUMC to looped peptides of the protein M of SARS-CoV Urbani / Binding of Control Serum Blood-Bank to Looped peptides of the protein M of SARS-CoV Urbani: unit not given here

## LTLIVFTSCELYHYQ
[1]
  Rabbit serum linear peptides: 0.5
  Rabbit serum looped peptides: 0.3
[2]
  Binding of serum 1a to linear peptides of protein X4 of SARS-CoV Urbani: 0.7
  Binding of serum 1a to looped/cyclic peptides of protein X4 of SARS-CoV Urbani: 0.8
  Binding of serum 1b to linear peptides of protein X4 of SARS-CoV Urbani: 0.6
  Binding of serum 1b to looped/cyclic peptides of protein X4 of SARS-CoV Urbani: 0.7
  Binding of serum 2 to linear peptides of protein X4 of SARS-CoV Urbani: 0.5
  Binding of serum 2 to looped/cyclic peptides of protein X4 of SARS-CoV Urbani: 0.7
  Binding of serum 6 to linear peptides of protein X4 of SARS-CoV Urbani: 0.5
  Binding of serum 6 to looped/cyclic peptides of protein X4 of SARS-CoV Urbani: 0.5
  Binding of serum 37 to linear peptides of protein X4 of SARS-CoV Urbani: 0.7
  Binding of serum 37 to looped/cyclic peptides of protein X4 of SARS-CoV Urbani: 0.7
  Binding of serum 62 to linear peptides of protein X4 of SARS-CoV Urbani: 0.8
  Binding of serum 62 to looped/cyclic peptides of protein X4 of SARS-CoV Urbani: 0.7
  Binding of serum London to linear peptides of protein X4 of SARS-CoV Urbani: 0.7
  Binding of serum London to looped/cyclic peptides of protein X4 of SARS-CoV Urbani: 0.3
  Binding of serum SARS-green to linear peptides of protein X4 of SARS-CoV Urbani: 0.7
  Binding of serum SARS-green to looped/cyclic peptides of protein X4 of SARS-CoV Urbani: 0.4
  Binding of serum SARS-yellow to linear peptides of protein X4 of SARS-CoV Urbani: 0.4
  Binding of serum SARS-yellow to looped/cyclic peptides of protein X4 of SARS-CoV Urbani: 0.7
[3]
  Binding of Control Serum Blood-Bank to Looped peptides: 0.7
  Binding of Control serum Blood-bank to linear peptides: 0.7
  Binding of Control serum LUMC to linear peptides: 0.7
  Binding of Control serum LUMC to looped peptides: 0.8

## LVAAGMEAQFLYLYA
[1]
  Binding of a rabbit serum to linear peptides: 0.1
  Binding of a rabbit serum to looped peptides: 0.6
[2]
  Binding of serum 1a to linear peptides of protein X1 of SARS-CoV Urbani: 0.8
  Binding of serum 1a to looped/cyclic peptide (PEPSCAN-ELISA): 0.5
  Binding of serum 1b to linear peptides of protein X1 of SARS-CoV Urbani: 0.7
  Binding of serum 1b to looped/cyclic peptide (PEPSCAN-ELISA): 0.4
  Binding of serum 2 to linear peptides of protein X1 of SARS-CoV Urbani: 0.6
  Binding of serum 2 to looped/cyclic peptide (PEPSCAN-ELISA): 0.5
  Binding of serum 6 to linear peptides of protein X1 of SARS-CoV Urbani: 0.4
  Binding of serum 6 to looped/cyclic peptide (PEPSCAN-ELISA): 0.3
  Binding of serum 37 to linear peptides of protein X1 of SARS-CoV Urbani: 0.6
  Binding of serum 37 to looped/cyclic peptide (PEPSCAN-ELISA): 0.5
  Binding of serum 62 to linear peptides of protein X1 of SARS-CoV Urbani: 0.5
  Binding of serum 62 to looped/cyclic peptide (PEPSCAN-ELISA): 0.5
  Binding of serum London to linear peptides of protein X1 of SARS-CoV Urbani: 0.2
  Binding of serum London to looped/cyclic peptide (PEPSCAN-ELISA): 0.2
  Binding of serum SARS-green to linear peptides of protein X1 of SARS-CoV Urbani: 0.2
  Binding of serum SARS-green to looped/cyclic peptide (PEPSCAN-ELISA): 0.3
  Binding of serum SARS-yellow to linear peptides of protein X1 of SARS-CoV Urbani: 0.3
  Binding of serum SARS-yellow to looped/cyclic peptide (PEPSCAN-ELISA): 0.6
[3]
  Binding of Control Serum Blood-Bank to Looped peptides: 0.5
  Binding of Control serum Blood-bank to linear peptides: 0.4
  Binding of Control serum LUMC to linear peptides: 1.1
  Binding of Control serum LUMC to looped peptides: 0.6

## LVDFQVTIAEILIII
[1]
  Rabbit serum linear peptides: 0.3
  Rabbit serum looped peptides: 0.3
[2]
  Binding of serum 1a to linear peptides of protein X3 of SARS-CoV Urbani: 0.8
  Binding of serum 1a to looped/cyclic peptides of protein X3 of SARS-CoV Urbani: 0.7
  Binding of serum 1b to linear peptides of protein X3 of SARS-CoV Urbani: 0.6
  Binding of serum 1b to looped/cyclic peptides of protein X3 of SARS-CoV Urbani: 0.4
  Binding of serum 2 to linear peptides of protein X3 of SARS-CoV Urbani: 0.7
  Binding of serum 2 to looped/cyclic peptides of protein X3 of SARS-CoV Urbani: 0.6
  Binding of serum 6 to linear peptides of protein X3 of SARS-CoV Urbani: 0.5
  Binding of serum 6 to looped/cyclic peptides of protein X3 of SARS-CoV Urbani: 0.3
  Binding of serum 37 to linear peptides of protein X3 of SARS-CoV Urbani: 0.6
  Binding of serum 37 to looped/cyclic peptides of protein X3 of SARS-CoV Urbani: 0.5
  Binding of serum 62 to linear peptides of protein X3 of SARS-CoV Urbani: 0.6
  Binding of serum 62 to looped/cyclic peptides of protein X3 of SARS-CoV Urbani: 0.6
  Binding of serum London to linear peptides of protein X3 of SARS-CoV Urbani: 0.6
  Binding of serum London to looped/cyclic peptides of protein X3 of SARS-CoV Urbani: 0.2
  Binding of serum SARS-green to linear peptides of protein X3 of SARS-CoV Urbani: 0.4
  Binding of serum SARS-green to looped/cyclic peptides of protein X3 of SARS-CoV Urbani: 0.2
  Binding of serum SARS-yellow to linear peptides of protein X3 of SARS-CoV Urbani: 0.7
  Binding of serum SARS-yellow to looped/cyclic peptides of protein X3 of SARS-CoV Urbani: 0.6
[3]
  Binding of Control Serum Blood-Bank to Looped peptides of the protein X3 of SARS-CoV Urbani: 0.6
  Binding of Control serum Blood-bank to linear peptides of the protein X3 of SARS-CoV Urbani: 0.8
  Binding of Control serum LUMC to linear peptides of the protein X3 of SARS-CoV Urbani: 0.9
  Binding of Control serum LUMC to looped peptides of the protein X3 of SARS-CoV Urbani: 0.7

## LVIGAVIIRGHLRMA
[1]
  Rabbit serum linear peptides: 0.2
  Rabbit serum looped peptides: 1.4
[2]
  Binding of serum 1a to linear peptides of protein M of SARS-CoV Urbani: 0.7
  Binding of serum 1a to looped/cyclic peptides of protein M of SARS-CoV Urbani: 0.8
  Binding of serum 1b to linear peptides of protein M of SARS-CoV Urbani: 0.5
  Binding of serum 1b to looped/cyclic peptides of protein M of SARS-CoV Urbani: 0.4
  Binding of serum 2 to linear peptides of protein M of SARS-CoV Urbani: 0.5
  Binding of serum 2 to looped/cyclic peptides of protein M of SARS-CoV Urbani: 0.8
  Binding of serum 6 to linear peptides of protein M of SARS-CoV Urbani: 0.6
  Binding of serum 6 to looped/cyclic peptides of protein M of SARS-CoV Urbani: 1.2
  Binding of serum 37 to linear peptides of protein M of SARS-CoV Urbani: 0.4
  Binding of serum 37 to looped/cyclic peptides of protein M of SARS-CoV Urbani: 0.7
  Binding of serum 62 to linear peptides of protein M of SARS-CoV Urbani: 0.4
  Binding of serum 62 to looped/cyclic peptides of protein M of SARS-CoV Urbani: 0.8
  Binding of serum London to linear peptides of protein M of SARS-CoV Urbani: 0.3
  Binding of serum SARS-green to linear peptides of protein M of SARS-CoV Urbani: 0.4
  Binding of serum SARS-green to looped/cyclic peptides of protein M of SARS-CoV Urbani: 0.3
  Binding of serum SARS-yellow to linear peptides of protein M of SARS-CoV Urbani: 0.3
  Binding of serum SARS-yellow to looped/cyclic peptides of protein M of SARS-CoV Urbani: 0.7
[3]
  Binding of Control Serum Blood-Bank to Looped peptides of the protein M of SARS-CoV Urbani: 0.7
  Binding of Control serum Blood-bank to linear peptides of the protein M of SARS-CoV Urbani: 0.6
  Binding of Control serum LUMC to linear peptides of the protein M of SARS-CoV Urbani: 0.7
  Binding of Control serum LUMC to looped peptides of the protein M of SARS-CoV Urbani: 0.7

## LVIGVAFLAVFQSAT
[1]
  Binding of a rabbit serum to linear peptides: 0.3
  Binding of a rabbit serum to looped peptides: 1.2
[2]
  Binding of serum 1a to linear peptides of protein X1 of SARS-CoV Urbani: 0.7
  Binding of serum 1a to looped/cyclic peptide (PEPSCAN-ELISA): 0.8
  Binding of serum 1b to linear peptides of protein X1 of SARS-CoV Urbani: 0.6
  Binding of serum 1b to looped/cyclic peptide (PEPSCAN-ELISA): 0.6
  Binding of serum 2 to linear peptides of protein X1 of SARS-CoV Urbani: 0.6
  Binding of serum 2 to looped/cyclic peptide (PEPSCAN-ELISA): 0.7
  Binding of serum 6 to linear peptides of protein X1 of SARS-CoV Urbani: 0.4
  Binding of serum 6 to looped/cyclic peptide (PEPSCAN-ELISA): 0.7
  Binding of serum 37 to linear peptides of protein X1 of SARS-CoV Urbani: 0.6
  Binding of serum 37 to looped/cyclic peptide (PEPSCAN-ELISA): 0.8
  Binding of serum 62 to linear peptides of protein X1 of SARS-CoV Urbani: 0.6
  Binding of serum 62 to looped/cyclic peptide (PEPSCAN-ELISA): 1.0
  Binding of serum London to linear peptides of protein X1 of SARS-CoV Urbani: 0.3
  Binding of serum London to looped/cyclic peptide (PEPSCAN-ELISA): 0.3
  Binding of serum SARS-green to linear peptides of protein X1 of SARS-CoV Urbani: 0.3
  Binding of serum SARS-green to looped/cyclic peptide (PEPSCAN-ELISA): 0.5
  Binding of serum SARS-yellow to linear peptides of protein X1 of SARS-CoV Urbani: 0.4
  Binding of serum SARS-yellow to looped/cyclic peptide (PEPSCAN-ELISA): 0.7
[3]
  Binding of Control Serum Blood-Bank to Looped peptides: 1.1
  Binding of Control serum Blood-bank to linear peptides: 0.6
  Binding of Control serum LUMC to linear peptides: 0.6
  Binding of Control serum LUMC to looped peptides: 1.0

Reference: US20070128217A1 (priority 2003, published 2007)
